Measured values as given in patent US20080038374A1, “New Use” (Lipopeptide AB, priority 2004, published 2008).
Several values for one entry are separate records, joined by “and”; a condition that tells them apart may be missing. Identical values can stand only once.

Experiments:
hCAP18 [1] = assay: Expression of hCAP18 mRNA in human primary keratinocytes by Real-Time PCR; type: cell-based
Procedure: Human neonatal epidermal keratinocytes were obtained from Cascade Biologics, Inc. (Lot # 1C1145; Port-land, OR) and cultured in EpiLife serum-free keratinocyte growth medium (Cascade Biologics, Inc.) containing growth supplements and a calcium concentration of 0.06 mM. Cells at passage 3 were allowed to grow for three days to approximately 60% confluence. For calcium switch experiments, 1.5 mM CaCl2 (added from a 1 M stock solution) was added to the plates and after 48 hours the cells were regarded as differentiated (observed as an induction of mRNA expression of the two keratinocyte markers transglutaminase and cellular retinoic acid-binding protein II). The compounds assayed were 25-hydroxy-cholecalciferol (25-OH-D3), 1,25-dihydroxycholecalciferol (1,25-(OH)2-D3), and calcipotriol/MC 903 (Leo Pharmaceutical, Denmark). Their effect on hCAP18 expression was monitored by quantitivate PCR analysis.
Keratinocytes were grown as above and treated with said compounds for 4 h. RNA was extracted with the RNeasy kit (Qiagen) and reverse transcribed with a first strand synthesis kit (Amersham-Pharmacia). RNA was quantified by Real-Time PCR on an ABI Prism 7700 (Applied Biosystems) using 5 ng of cDNA according to standard protocols. The samples were evaluated in triplicates. Sequences were 5′-[…]-3′ and 5′-[…]-3′ for the primers, and 5′-[…]-3′ for the fluorigenic probe. The samples were normalized by quantification of 18S-RNA (Assay on Demand, Applied Biosystems).
To assess the specificity of the vitamin D regulation on the hCAP18 gene, the vitamin D3 precursor 7-dehydrocholesterol (7-DHC) was assayed at a concentration of 1 μM as in Example 1. 7-DHC had no effect on hCAP18 expression. […] Assays were performed and measured as above. The effect of 1,25-(OH)2-D3 is shown for comparison.

hCAP18 [2] = conditions: keratinocytes and leukocytes in vitro; cited from earlier work
hCAP18 promoter = assay: Stimulation of the hCAP18 promoter at different concentrations (FIG. 4); type: cell-based, human; conditions: tested at 1, 10, 100 and 1000 nM
Procedure: To assess whether physiological levels were sufficient to induce the stimulation of the hCAP18 promoter, the study was performed at the different concentrations 1, 10, 100 and 1000 nM of 1,25-(OH)2-D3 and 25-OH-D3 (FIG. 4). […] The physiologic serum concentration of 25-OH-vitamin D3 is between 20 nM and 125 nM, whereas the 1,25-(OH)2-D3 is present in pM concentration. A dosage form of a vitamin D compound for topical administration includes for instance about 1-100, preferably 5-50 μg vitamin D compound per gram composition.

dermatitis = conditions: topical, 0.03-1.0 μg/g of composition; type of dermatitis not stated; cited from earlier work
hCAP18 [3] = assay: hCAP18/LL-37 expression in skin of healthy volunteers after topical application; type: in vivo, human; conditions: 0.002% solution topical, 4 days, three healthy volunteers
Procedure: To assay whether 1,25-(OH)2-D3 stimulated hCAP18 expression in vivo, we applied 1,25-(OH)2D3 to the skin of three healthy individuals.
A stock solution of 4 mM 1,25-dihydroxyvitamin D3 in isopropanol was diluted in ethanol:propylene glycol [70:30] to a final vitamin D concentration of 0.002%. The vehicle containing ethanol 96% and propylene glycol [70:30] with 0.5 mg/ml BHT (butylated hydroxy toluene) served as control. In a room with dim light, the vitamin D and the control were locally applied to the skin (the right and left upper arm respectively) of three healthy volunteers. The test area of 2×2.5 cm on each arm was cleaned with saline solution (NaCl 0.9) before application. Evaporation time for the solutions of vitamin D and the vehicle varied between 8 and 15 minutes. The tested area was then covered with plastic film and band-aid (Gladpack, Melolin and Mefix). After 4 days the band-aid and the plastic film was removed and the test area was rapidly cleaned with 40% ethanol. Punch biopsies (4 mm) were obtained from the test area (after infiltration anesthesia with 2-3 ml Xylocaln with epinefrin) and were frozen instantly. […] Protein concentrations were measured by Protein Assay Kit (Bio-Rad Laboratories, Hercules Calif.) based on the Bradford method (Bradford, 1976) and samples were diluted to a final protein concentration of 1 mg per ml. […]

hCAP18 [4] = assay: hCAP18 mRNA in skin of atopic dermatitis patients, Real-Time PCR; type: in vivo, human; set-up: hCAP18 mRNA, Non-lesional skin, Treated / hCAP18 mRNA, Lesional skin, Treated: unit not given here; conditions: 0.002% topical, 4 days, one patient per row
Procedure: To assay whether 1,25-(OH)2-D3 stimulated hCAP18 expression in atopic dermatitis, we applied 1,25-(OH)2-D3 on the skin of four individuals, two females and two men, with active atopic dermatitis. The patients had suffered from the eczema for 11-30 years. The diagnosis was made by a dermatologist. A stock solution of 4 mM 1,25-(OH)2-D3 in isopropanol was diluted in ethanol:propylene glycol (70:30) to a final concentration of 0.002%. To prevent deactivation of 1,25-(OH)2-D3, the procedure was performed in a room with dim light. The 1,25-(OH)2-D3 were locally applied on lesional and non-lesional skin area of patients. The skin surface was cleaned with saline solution (NaCl 0.9) before application. The treated skin area was measured to 2×2.25 cm. Evaporation time for the solutions of 1,25-(OH)2-D3 varied between 8 and 15 minutes. The skin area was then covered with plastic film and band-aid (Quickpack: Haushalt und Hygiene GmbH, Renningen, Germany; Melolin: Smith and Nephew, Hull, UK; Mefix: Molnlycke A B, Gothenburg, Sweden). After 4 days the band-aid and the plastic film were removed and the skin areas were rapidly cleaned with 40% ethanol. Punch biopsies (4 mm) were obtained from the treated skin areas (after infiltration anesthesia with 2-3 ml Xylocaln with epinephrin) and frozen instantly. On the first day, control biopsies were also obtained from non-treated lesional and non-lesional skin and the tissues were snap-frozen as described. RNA was extracted and hCAP18 mRNA expression determined by Real-Time PCR as described above in Example 1.

acute wounds = conditions: Wistar rats, intraperitonial; cited from earlier work
angiogenesis = conditions: cited from earlier work

Compound: C=C1/C(=C\C=C2/CCC[C@]3(C)[C@@H]([C@H](C)/C=C/[C@H](C)C(C)(C)O)CC[C@@H]23)C[C@@H](O)C[C@@H]1O [1,25-(OH)2-D2, 1,25-dihydroxyergocalciferol]
- activity on hCAP18 expression compared with 1,25-(OH)2-D3 (hCAP18 [1]; concentration not given): activity comparable to 1,25-(OH)-D3

Compound: C=C1/C(=C\C=C2/CCC[C@]3(C)[C@@H]([C@H](C)CCCC(C)(C)O)CC[C@@H]23)C[C@@H](O)C[C@@H]1O [1,25-(OH)2-D3, 1,25-dihydroxy-cholecalciferol]
- expression of hCAP18 (hCAP18 [2]): directly induces
- level down to which a substantial portion of stimulation remained (hCAP18 promoter): 10 nM
- effect on dermatitis (dermatitis): marked effect
- expression of hCAP18 and production of LL-37 in human skin in vivo (hCAP18 [3]): Up-Regulates
- Increase (treated/untreated), Lesional skin (hCAP18 [4]; lesional skin): 5638% and 79756% and 977% and 220%
- hCAP18 mRNA, Lesional skin, Treated (hCAP18 [4]; lesional skin): 1093 and 539 and 64 and 29
- Increase (treated/untreated), Non-lesional skin (hCAP18 [4]; non-lesional skin): 13104% and 520% and 841% and 459%
- hCAP18 mRNA, Non-lesional skin, Treated (hCAP18 [4]; non-lesional skin): 739.4 and 24.8 and 24.2 and 8.1

Compound: C=C1/C(=C\C=C2/CCC[C@]3(C)[C@@H]([C@H](C)CCCC(C)C)CC[C@@H]23)C[C@@H](O)C[C@@H]1O [1α-OH-cholecalciferol, 1-alpha-hydroxycholecalciferol]
- effect on dermatitis (dermatitis): marked effect

Compound: CC(C)CCC[C@@H](C)[C@H]1CC[C@H]2C3=CC=C4C[C@@H](O)CC[C@]4(C)[C@H]3CC[C@]12C [7-DHC, 7-dehydrocholesterol]
- effect on hCAP18 expression (hCAP18 [1]; 1 μM, as in Example 1): no effect

Compound: C=C1CC[C@H](O)C/C1=C/C=C1\CCC[C@]2(C)[C@@H]([C@H](C)CC[C@@H](O)C(C)(C)O)CC[C@@H]12 [24,25-dihydroxycholecalciferol]
- effect on dermatitis (dermatitis): no effect

Compound: C=C1CC[C@H](O)C/C1=C/C=C1\CCC[C@]2(C)[C@@H]([C@H](C)CCCC(C)(C)O)CC[C@@H]12 [25-OH-D3, 25-hydroxy-cholecalciferol]
- level down to which a substantial portion of stimulation remained (hCAP18 promoter): 10 nM

Compound: [Ca+2].[Cl-].[Cl-] [calcium, CaCl2]
- increase of hCAP18 expression by induction of differentiation (hCAP18 [1]; 1.5 mM CaCl2, 48 hours, keratinocytes): about 1.5 fold

Compound: C=C1CC[C@H](O)C/C1=C/C=C1\CCC[C@]2(C)[C@@H]([C@H](C)CCCC(C)C)CC[C@@H]12 [cholecalciferol]
- effect on dermatitis (dermatitis): no effect
- re-epithelization of acute wounds (acute wounds): accelerates
- wound breaking strength (acute wounds): increases

Compound: C=C1CC[C@H](O)C/C1=C/C=C1\CCC[C@]2(C)[C@@H]([C@H](C)/C=C/[C@H](C)C(C)C)CC[C@@H]12 [ergocalciferol]
- effect on dermatitis (dermatitis): no effect

Compound: LL-37/hCAP18: endogenous 37 amino acid antimicrobial peptide released by proteolytic cleavage of hCAP18 (LLGDFFRKSKEKIGKEFKRIVQRIKDFLRNLVPRTES; Antibacterial peptide LL-37; UniProt P49913 134-170, looked up)
- angiogenesis (angiogenesis): induces functionally important angiogenesis
